# Key:
# [1] = system: NCI-N87; assay: In vitro cytotoxicity assay (CCK-8) in NCI-N87; type: cell-based; settings: Homo sapiens, toxins (expected metabolites of the ADCs), 120 hours
# Method: (§1) Dispensed 175 μL cell suspension in 96-well plate at 1500 cells per well and incubate for 24 hours in a humidified incubator (37° C., 5% CO2). […] Added 25 μL various concentrations of compound as a […] solution into the cell culture medium (Fetal bovine serum, Invitrogen) in the plate and incubated for 120 hours in the incubator. Thawed CCK-8 on the bench top or in a 37° C. water bath, added 10 μL of CCK-8 to each well of the incubated plate (be careful not introducing air bubbles into the wells since they would interfere with the O. D. reading) and then further incubated for 1-4 hours in the incubator. Measured the absorbance at 450 nm using a SpectraMax i3× Microplate Reader and calculated the cell inhibition rate. The IC50 curves were generated along with the IC50 values by using GraphPad Prism software.
# [2] = system: SK-BR-3; assay: In vitro cytotoxicity assay (CCK-8) in SK-BR-3; type: cell-based; settings: Homo sapiens, toxins (expected metabolites of the ADCs), 120 hours
# Method: as §1
# [3] = system: MDA-MB-468; assay: In vitro cytotoxicity assay (CCK-8) in MDA-MB-468; type: cell-based; settings: Homo sapiens, toxins (expected metabolites of the ADCs), 120 hours
# Method: as §1
# [4] = system: JIMT-1; assay: cells; type: cell-based, human; settings: for IC50: Homo sapiens, JIMT-1, toxins (expected metabolites of the ADCs), 120 hours
# Method: as §1
# [5] = system: SK-OV-3; assay: In vitro cytotoxicity assay (CCK-8) in SK-OV-3; type: cell-based; settings: Homo sapiens, toxins (expected metabolites of the ADCs), 120 hours
# Method: as §1
# [6] = system: MCF-7; assay: In vitro cytotoxicity assay (CCK-8) in MCF-7; type: cell-based; settings: Homo sapiens, MCF7; toxins (expected metabolites of the ADCs), 120 hours
# Method: as §1
# [7] = system: OVCAR-3; assay: In vitro cytotoxicity assay (CCK-8) in OVCAR-3; type: cell-based; settings: Homo sapiens, toxins (expected metabolites of the ADCs), 120 hours
# Method: as §1
Compound,IC50 [1],IC50 [2],IC50 [3],IC50 [4],IC50 [5],IC50 [6],IC50 [7],cytotoxic potency relative to DXd [4]
"CC[C@@]1(O)C(=O)OCc2c1cc1n(c2=O)Cc2c-1nc1cc(F)c(C)c3c1c2[C@@H](NC(=O)CO)CC3 [DXd, reference compound]",3.6 nM,1.9 nM,–,–,–,–,–,–
CCc1c2c(nc3cc(F)c(C)c(CCCCO)c13)-c1cc3c(c(=O)n1C2)COC(=O)[C@]3(O)CC,> 30 nM,> 30 nM,> 30 nM,> 30 nM,–,–,–,–
"CC[C@@]1(O)C(=O)OCc2c1cc1n(c2=O)Cc2cc3c(CCCCO)c(C)c(F)cc3nc2-1 [MB-1, (19S)-19-ethyl-6-fluoro-19-hydroxy-8-(4-hydroxybutyl)-7-methyl-17-oxa-3,13-diazapentacyclo[11.8.0.0^2,11.0^4,9.0^15,20]henicosa-1(21),2,4,6,8,10,15(20)-heptaene-14,18-dione]",1.3 nM,0.77 nM,0.42 nM,0.78 nM,1 nM,0.37 nM,0.1 nM,ten folds more potent than DXd
